Results from ChEMBL document CHEMBL4052785, “Discovery of (R)-5-(benzo[d][1,3]dioxol-5-yl)-7-((1-(vinylsulfonyl)pyrrolidin-2-yl)methyl)-7H-pyrrolo[2,3-d]pyrimidin-4-amine (B6) as a potent Bmx inhibitor for the treatment of NSCLC” (Bioorg Med Chem Lett, 2017).

Key:
[1] = target: Tyrosine-protein kinase JAK2 (Homo sapiens, UniProt O60674); assay: Inhibition of recombinant human C-terminal His6-tagged JAK2 (808 to end residues) expressed in baculovirus Sf21 insect cells preincubated for 5 mins followed by substrate addition after 30 to 60 mins in presence of ATP by fluorescence assay
[2] = target: Serine/threonine-protein kinase PLK1 (Homo sapiens, UniProt P53350); assay: Inhibition of recombinant human N-terminal His6-tagged PLK1 expressed in baculovirus Sf21 insect cells preincubated for 5 mins followed by substrate addition after 30 to 60 mins in presence of ATP by fluorescence assay
[3] = target: Tyrosine-protein kinase JAK1 (Homo sapiens, UniProt P23458); assay: Inhibition of human JAK1 expressed in baculovirus in Sf21 insect cells preincubated for 5 mins followed by substrate addition after 30 to 60 mins in presence of ATP by fluorescence assay
Tyrosine-protein kinase JAK1, sequence (P23458 whole entry): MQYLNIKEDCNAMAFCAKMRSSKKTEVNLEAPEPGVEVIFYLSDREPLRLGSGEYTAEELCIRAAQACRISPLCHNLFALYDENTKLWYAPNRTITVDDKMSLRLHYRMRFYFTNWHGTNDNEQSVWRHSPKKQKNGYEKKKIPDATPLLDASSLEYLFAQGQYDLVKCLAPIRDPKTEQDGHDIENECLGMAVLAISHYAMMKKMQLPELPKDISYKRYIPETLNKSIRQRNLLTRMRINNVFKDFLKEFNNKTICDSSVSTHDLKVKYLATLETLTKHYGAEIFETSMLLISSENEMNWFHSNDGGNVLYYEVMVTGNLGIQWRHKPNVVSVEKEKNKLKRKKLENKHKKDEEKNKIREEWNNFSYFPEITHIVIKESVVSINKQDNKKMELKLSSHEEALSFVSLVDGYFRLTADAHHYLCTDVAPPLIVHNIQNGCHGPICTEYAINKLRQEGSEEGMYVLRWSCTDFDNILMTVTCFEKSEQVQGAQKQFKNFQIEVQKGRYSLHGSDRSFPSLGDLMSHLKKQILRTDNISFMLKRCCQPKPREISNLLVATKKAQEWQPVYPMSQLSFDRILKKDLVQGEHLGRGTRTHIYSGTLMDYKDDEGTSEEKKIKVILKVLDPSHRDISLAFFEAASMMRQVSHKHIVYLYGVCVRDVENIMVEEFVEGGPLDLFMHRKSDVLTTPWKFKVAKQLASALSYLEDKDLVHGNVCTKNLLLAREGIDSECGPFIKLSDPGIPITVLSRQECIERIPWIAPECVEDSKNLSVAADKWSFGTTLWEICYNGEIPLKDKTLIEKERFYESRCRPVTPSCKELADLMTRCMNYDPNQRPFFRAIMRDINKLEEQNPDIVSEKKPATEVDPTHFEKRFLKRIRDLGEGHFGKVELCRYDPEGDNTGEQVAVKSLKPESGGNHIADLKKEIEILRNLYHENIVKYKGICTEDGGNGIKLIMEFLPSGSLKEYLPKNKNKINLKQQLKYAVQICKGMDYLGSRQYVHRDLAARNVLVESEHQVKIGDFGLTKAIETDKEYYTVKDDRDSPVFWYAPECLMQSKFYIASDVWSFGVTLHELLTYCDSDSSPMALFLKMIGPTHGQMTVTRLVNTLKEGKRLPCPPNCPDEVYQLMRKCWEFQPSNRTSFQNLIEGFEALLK

[4] = target: Tyrosine-protein kinase Fgr (Homo sapiens, UniProt P09769); assay: Inhibition of recombinant human N-terminal His6-tagged FGR (2 to end residues) expressed in baculovirus Sf21 insect cells preincubated for 5 mins followed by substrate addition after 30 to 60 mins in presence of ATP by fluorescence assay
[5] = target: Receptor tyrosine-protein kinase erbB-4 (Homo sapiens, UniProt Q15303); assay: Inhibition of human N-terminal 6His-tagged HER4 (706 to 991 residues) preincubated for 5 mins followed by substrate addition after 30 to 60 mins in presence ATP of fluorescence assay
[6] = species on record: Homo sapiens; assay: Selectivity ratio of IC50 for recombinant human N-terminal His6-tagged RIPK2 (1 to 299 residues) to IC50 for human full length N-terminal His6-tagged BMX
[7] = species on record: Homo sapiens; assay: Selectivity ratio of IC50 for recombinant human N-terminal GST-tagged FLT3 (564 to end residues) to IC50 for human full length N-terminal His6-tagged BMX
[8] = target: Tyrosine-protein kinase JAK3 (Homo sapiens, UniProt P52333); assay: Inhibition of recombinant human N-terminal His6-tagged JAK3 (781 to end residues) expressed in baculovirus Sf21 insect cells preincubated for 5 mins followed by substrate addition after 30 to 60 mins in presence of ATP by fluorescence assay
Tyrosine-protein kinase JAK3, sequence (P52333 whole entry): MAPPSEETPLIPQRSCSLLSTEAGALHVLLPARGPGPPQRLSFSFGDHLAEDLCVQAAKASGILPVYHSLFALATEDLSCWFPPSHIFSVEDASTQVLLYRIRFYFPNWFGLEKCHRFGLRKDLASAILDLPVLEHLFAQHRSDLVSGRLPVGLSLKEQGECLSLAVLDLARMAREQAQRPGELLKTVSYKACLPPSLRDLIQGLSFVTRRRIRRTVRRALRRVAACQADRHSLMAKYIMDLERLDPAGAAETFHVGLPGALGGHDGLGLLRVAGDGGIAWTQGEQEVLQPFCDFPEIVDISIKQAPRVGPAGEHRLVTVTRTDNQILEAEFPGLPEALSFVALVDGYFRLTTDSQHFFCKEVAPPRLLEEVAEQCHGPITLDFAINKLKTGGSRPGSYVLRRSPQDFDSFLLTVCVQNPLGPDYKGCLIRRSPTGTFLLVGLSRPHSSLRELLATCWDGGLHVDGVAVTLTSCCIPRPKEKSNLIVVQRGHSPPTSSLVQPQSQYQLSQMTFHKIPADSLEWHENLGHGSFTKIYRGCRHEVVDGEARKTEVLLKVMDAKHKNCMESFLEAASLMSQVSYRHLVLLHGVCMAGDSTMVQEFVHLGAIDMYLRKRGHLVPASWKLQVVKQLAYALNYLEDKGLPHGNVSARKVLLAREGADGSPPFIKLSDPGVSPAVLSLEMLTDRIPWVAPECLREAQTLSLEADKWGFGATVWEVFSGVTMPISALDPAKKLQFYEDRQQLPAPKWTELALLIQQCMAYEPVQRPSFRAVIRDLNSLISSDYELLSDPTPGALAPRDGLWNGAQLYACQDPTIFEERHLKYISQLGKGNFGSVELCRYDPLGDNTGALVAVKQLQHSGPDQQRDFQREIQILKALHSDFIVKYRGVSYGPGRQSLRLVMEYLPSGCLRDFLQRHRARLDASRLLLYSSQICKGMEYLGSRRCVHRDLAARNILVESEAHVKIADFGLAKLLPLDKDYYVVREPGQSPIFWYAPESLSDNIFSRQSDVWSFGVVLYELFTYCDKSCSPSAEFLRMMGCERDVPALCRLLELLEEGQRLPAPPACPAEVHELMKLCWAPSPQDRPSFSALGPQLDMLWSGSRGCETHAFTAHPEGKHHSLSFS

[9] = target: Tyrosine-protein kinase Yes (Homo sapiens, UniProt P07947); assay: Inhibition of recombinant human full length N-terminal His6-tagged YES expressed in baculovirus Sf21 insect cells preincubated for 5 mins followed by biotinyl-beta Abeta Abeta AYQAEENTYDEYEN substrate addition after 30 to 60 mins in presence of ATP by fluorescence assay
Tyrosine-protein kinase Yes, sequence (P07947 whole entry): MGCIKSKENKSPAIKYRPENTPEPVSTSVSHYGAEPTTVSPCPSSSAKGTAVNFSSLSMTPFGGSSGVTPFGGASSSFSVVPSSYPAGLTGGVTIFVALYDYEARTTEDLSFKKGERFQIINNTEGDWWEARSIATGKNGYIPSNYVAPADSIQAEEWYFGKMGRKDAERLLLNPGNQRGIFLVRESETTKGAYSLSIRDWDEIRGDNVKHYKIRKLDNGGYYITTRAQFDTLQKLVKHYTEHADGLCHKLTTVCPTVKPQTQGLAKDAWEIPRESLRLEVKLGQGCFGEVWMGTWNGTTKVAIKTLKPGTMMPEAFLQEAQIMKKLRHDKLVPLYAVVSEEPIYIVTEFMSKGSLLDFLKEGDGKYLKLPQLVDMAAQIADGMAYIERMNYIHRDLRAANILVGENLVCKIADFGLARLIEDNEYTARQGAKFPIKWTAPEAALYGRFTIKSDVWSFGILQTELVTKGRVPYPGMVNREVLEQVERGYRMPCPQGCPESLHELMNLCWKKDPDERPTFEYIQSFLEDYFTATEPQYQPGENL

[10] = target: Epidermal growth factor receptor (Homo sapiens, UniProt P00533); assay: Inhibition of recombinant human N-terminal GST-tagged EGFR (696 to end residues) expressed in baculovirus Sf21 insect cells preincubated for 5 mins followed by substrate addition after 30 to 60 mins in presence of ATP by fluorescence assay
[11] = species on record: Homo sapiens; assay: Selectivity ratio of IC50 for RSK1 (unknown origin) to IC50 for human full length N-terminal His6-tagged BMX
[12] = target: Ribosomal protein S6 kinase alpha-1 (Homo sapiens, UniProt Q15418); assay: Inhibition of RSK1 (unknown origin) preincubated for 5 mins followed by substrate addition after 30 to 60 mins in presence of ATP by fluorescence assay
[13] = species on record: Homo sapiens; assay: Selectivity ratio of IC50 for human PDGFRalpha to IC50 for human full length N-terminal His6-tagged BMX
[14] = species on record: Homo sapiens; assay: Selectivity ratio of IC50 for recombinant human full length N-terminal His6-tagged BTK to IC50 for human full length N-terminal His6-tagged BMX
[15] = test system: HCC827; assay: Antiproliferative activity against human HCC827 cells harboring EGFR Del19 mutant after 72 hrs by MTT assay; format: functional, cell-based; conditions: HCC827, 72 h
[16] = species on record: Homo sapiens; assay: Selectivity ratio of IC50 for recombinant human full length N-terminal His6-tagged BRK to IC50 for human full length N-terminal His6-tagged BMX
[17] = species on record: Homo sapiens; assay: Selectivity ratio of IC50 for recombinant human N-terminal His6-tagged ITK (352 to 617 residues) to IC50 for human full length N-terminal His6-tagged BMX
[18] = target: Tyrosine-protein kinase Fer (Homo sapiens, UniProt P16591); assay: Inhibition of recombinant human N-terminal His6-tagged FER (541 to end residues) expressed in baculovirus Sf21 insect cells preincubated for 5 mins followed by substrate addition after 30 to 60 mins in presence of ATP by fluorescence assay
[19] = species on record: Homo sapiens; assay: Selectivity ratio of IC50 for recombinant human N-terminal His6-tagged HCK (230 to 497 residues) to IC50 for human full length N-terminal His6-tagged BMX
[20] = species on record: Homo sapiens; assay: Selectivity ratio of IC50 for recombinant human full length N-terminal His6-tagged SRC to IC50 for human full length N-terminal His6-tagged BMX
[21] = species on record: Homo sapiens; assay: Selectivity ratio of IC50 for recombinant human N-terminal GST-tagged RET (658 to end residues) to IC50 for human full length N-terminal His6-tagged BMX
[22] = species on record: Homo sapiens; assay: Selectivity ratio of IC50 for recombinant human full length N-terminal His6-tagged NEK2 to IC50 for human full length N-terminal His6-tagged BMX
[23] = test system: Mus musculus; assay: Toxicity in nude mouse xenografted with human NCI-H1975 cells assessed as abnormal behavior at 25 mg/kg administered qd via oral gavage for 18 days measured on day 14; format: organism-based; conditions: in vivo, 432 h
[24] = target: Tyrosine-protein kinase HCK (Homo sapiens, UniProt P08631); assay: Inhibition of recombinant human N-terminal His6-tagged HCK (230 to 497 residues) expressed in baculovirus Sf21 insect cells preincubated for 5 mins followed by substrate addition after 30 to 60 mins in presence of ATP by fluorescence assay
Tyrosine-protein kinase HCK, sequence (P08631 whole entry, the tested form may be a part): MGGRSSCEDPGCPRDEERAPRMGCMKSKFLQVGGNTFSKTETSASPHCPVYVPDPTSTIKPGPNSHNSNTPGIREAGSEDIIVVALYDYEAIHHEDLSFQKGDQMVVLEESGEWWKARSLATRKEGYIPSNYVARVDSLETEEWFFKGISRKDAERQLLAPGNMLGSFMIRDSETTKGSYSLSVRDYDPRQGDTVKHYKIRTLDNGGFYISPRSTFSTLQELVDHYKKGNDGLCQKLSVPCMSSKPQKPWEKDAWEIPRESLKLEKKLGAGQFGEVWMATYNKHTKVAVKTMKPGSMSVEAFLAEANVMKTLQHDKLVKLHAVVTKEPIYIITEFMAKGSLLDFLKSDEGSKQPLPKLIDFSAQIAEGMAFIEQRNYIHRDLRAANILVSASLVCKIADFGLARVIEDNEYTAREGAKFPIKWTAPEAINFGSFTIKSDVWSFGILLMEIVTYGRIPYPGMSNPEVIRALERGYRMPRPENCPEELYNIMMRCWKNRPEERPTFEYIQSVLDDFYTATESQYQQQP

[25] = target: Proto-oncogene tyrosine-protein kinase receptor Ret (Homo sapiens, UniProt P07949); assay: Inhibition of recombinant human N-terminal GST-tagged RET (658 to end residues) expressed in baculovirus Sf21 insect cells preincubated for 5 mins followed by biotinyl-beta Abeta Abeta AAEEEEYFELVAKKK substrate addition after 30 to 60 mins in presence of ATP by fluorescence assay
[26] = target: Tyrosine-protein kinase ABL1 (Homo sapiens, UniProt P00519); assay: Inhibition of recombinant human N-terminal His6-tagged ABL (27 to end residues) expressed in baculovirus Sf21 insect cells preincubated for 5 mins followed by substrate addition after 30 to 60 mins in presence of ATP by fluorescence assay
Tyrosine-protein kinase ABL1, sequence (P00519 whole entry): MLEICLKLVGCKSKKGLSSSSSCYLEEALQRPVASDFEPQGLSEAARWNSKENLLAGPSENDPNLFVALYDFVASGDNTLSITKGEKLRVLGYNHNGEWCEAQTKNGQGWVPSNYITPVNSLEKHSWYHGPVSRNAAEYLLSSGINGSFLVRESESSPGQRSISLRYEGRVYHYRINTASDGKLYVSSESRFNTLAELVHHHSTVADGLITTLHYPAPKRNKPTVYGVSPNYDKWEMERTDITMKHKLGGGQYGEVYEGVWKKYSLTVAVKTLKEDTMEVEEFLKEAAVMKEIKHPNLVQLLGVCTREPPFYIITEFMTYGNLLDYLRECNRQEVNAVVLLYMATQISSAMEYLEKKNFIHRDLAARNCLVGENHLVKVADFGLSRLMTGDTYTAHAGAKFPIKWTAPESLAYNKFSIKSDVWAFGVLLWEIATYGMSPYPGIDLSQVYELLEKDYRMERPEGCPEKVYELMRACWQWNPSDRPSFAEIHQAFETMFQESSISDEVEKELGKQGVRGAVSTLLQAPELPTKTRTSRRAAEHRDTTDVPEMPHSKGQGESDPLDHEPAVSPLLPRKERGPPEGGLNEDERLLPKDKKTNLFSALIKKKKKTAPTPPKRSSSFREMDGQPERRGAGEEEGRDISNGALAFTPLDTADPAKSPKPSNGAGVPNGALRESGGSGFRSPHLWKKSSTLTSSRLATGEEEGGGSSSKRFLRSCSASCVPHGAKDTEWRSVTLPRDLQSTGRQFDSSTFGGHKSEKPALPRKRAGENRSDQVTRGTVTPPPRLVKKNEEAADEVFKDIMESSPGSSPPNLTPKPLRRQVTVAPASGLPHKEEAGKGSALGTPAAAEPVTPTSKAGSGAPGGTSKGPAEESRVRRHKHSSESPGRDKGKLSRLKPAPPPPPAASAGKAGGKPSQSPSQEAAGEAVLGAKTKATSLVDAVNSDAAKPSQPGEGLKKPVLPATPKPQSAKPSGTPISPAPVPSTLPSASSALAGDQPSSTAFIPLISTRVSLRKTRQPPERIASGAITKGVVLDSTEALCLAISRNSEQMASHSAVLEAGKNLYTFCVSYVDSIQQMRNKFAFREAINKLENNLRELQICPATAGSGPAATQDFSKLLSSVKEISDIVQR

[27] = species on record: Homo sapiens; assay: Selectivity ratio of IC50 for recombinant human N-terminal His6-tagged TEC (174 to end residues) to IC50 for human full length N-terminal His6-tagged BMX
[28] = target: Tyrosine-protein kinase CSK (Homo sapiens, UniProt P41240); assay: Inhibition of recombinant human full length N-terminal GST-tagged CSK expressed in Escherichia coli BL21 (DE3) cells preincubated for 5 mins followed by biotinyl-beta Abeta Abeta AEEEPQYEEIPIYLELLP substrate addition after 30 to 60 mins in presence of ATP by fluorescence assay
Tyrosine-protein kinase CSK, sequence (P41240 whole entry): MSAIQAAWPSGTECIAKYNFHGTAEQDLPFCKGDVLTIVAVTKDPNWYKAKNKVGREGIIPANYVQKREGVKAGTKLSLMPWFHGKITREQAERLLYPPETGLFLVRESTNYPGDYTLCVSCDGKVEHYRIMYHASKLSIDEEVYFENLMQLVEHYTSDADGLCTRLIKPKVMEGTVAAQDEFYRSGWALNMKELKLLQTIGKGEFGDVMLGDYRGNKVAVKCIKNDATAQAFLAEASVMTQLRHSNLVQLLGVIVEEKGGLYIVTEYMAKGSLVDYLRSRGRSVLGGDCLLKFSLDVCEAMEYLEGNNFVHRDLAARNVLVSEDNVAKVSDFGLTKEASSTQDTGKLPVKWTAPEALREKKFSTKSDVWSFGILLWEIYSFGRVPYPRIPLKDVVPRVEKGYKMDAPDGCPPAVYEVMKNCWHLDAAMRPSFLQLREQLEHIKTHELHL

**Q.** Which results are given for C=CS(=O)(=O)N1CCC[C@@H]1Cn1cc(-c2ccc3c(c2)OCO3)c2c(N)ncnc21?
**A.** IC50 [1]: > 10000 nM; IC50 [2]: > 10000 nM; IC50 [3]: > 10000 nM; IC50 [4]: 133 nM; IC50 [5]: 1000 nM; Ratio IC50 [6]: 11.3; Ratio IC50 [7]: 91.7; IC50 [8]: 8160 nM; IC50 [9]: 57.3 nM; IC50 [10]: 643 nM; Ratio IC50 [11]: > 280; IC50 [12]: > 10000 nM; Ratio IC50 [13]: > 280; Ratio IC50 [14]: 2.5; IC50 [15]: 14 nM; Ratio IC50 [16]: 5.9; Ratio IC50 [17]: 158; IC50 [18]: 5910 nM; Ratio IC50 [19]: 5.6; Ratio IC50 [20]: 5.5; Ratio IC50 [21]: 2.5; Ratio IC50 [22]: > 280; Activity [23]: Non-Toxic; IC50 [24]: 199 nM; IC50 [25]: 89.5 nM; IC50 [26]: 802 nM; Ratio IC50 [27]: 3.1; IC50 [28]: 2830 nM
